Source: the NIST ThermoML archive (doi:10.1021/je100821g)
± gives the expanded uncertainty stated by the source.

Columns and labels:
[1] = Liquid; for viscosity / mass density: 101.33 kPa; for viscosity: Concentric cylinders viscometry; for mass density: Vibrating tube method
[2] = excess molar enthalpy (molar enthalpy of mixing); xn = mol fraction of the nth substance listed; settings: 303 K, 101 kPa, Liquid, Calvet calorimetry
[3] = xn = mol fraction of the nth substance listed; settings: 293.15 K, 101 kPa, Liquid; for viscosity: Concentric cylinders viscometry

Q: With `COC(C)(C)C` [2-methoxy-2-methylpropane] as the molecule, how does the viscosity ([1]; 273.15 K) read?
A: Its viscosity is 0.39 ± 0.005 mPa·s.

Q: What about the mass density ([1]; 273.15 K) of the same molecule?
A: Its mass density is 760.4 ± 0.3 kg/m3.

Q: What about the viscosity ([1]; 283.15 K) of the same molecule?
A: Its viscosity is 0.36 ± 0.005 mPa·s.

Q: What about the mass density ([1]; 283.15 K) of the same molecule?
A: Its mass density is 750.1 ± 0.3 kg/m3.

Q: What about the “vapor or sublimation pressure” value ([1]; 286.5 K) of the same molecule?
A: The value was 20 ± 0.2 kPa.

Q: And the “vapor or sublimation pressure” value ([1]; 291.3 K)?
A: Its value is 25 ± 0.21 kPa.

Q: And the viscosity ([1]; 293.15 K)?
A: The viscosity was 0.333 ± 0.005 mPa·s.

Q: And the mass density ([1]; 293.15 K)?
A: The mass density was 739.9 ± 0.3 kg/m3.

Q: What about the “vapor or sublimation pressure” value ([1]; 295.5 K) of the same molecule?
A: Its value is 30 ± 0.22 kPa.

Q: And the viscosity ([1]; 298.15 K)?
A: Its viscosity is 0.319 ± 0.005 mPa·s.

Q: And the mass density ([1]; 298.15 K)?
A: The mass density was 734.4 ± 0.3 kg/m3.

Q: What about the “vapor or sublimation pressure” value ([1]; 299.2 K) of the same molecule?
A: Its value is 35 ± 0.23 kPa.

Q: And the “vapor or sublimation pressure” value ([1]; 302.5 K)?
A: The value was 40 ± 0.19 kPa.

Q: And the viscosity ([1]; 303.15 K)?
A: The viscosity was 0.304 ± 0.005 mPa·s.

Q: What about the mass density ([1]; 303.15 K) of the same molecule?
A: Its mass density is 729.2 ± 0.3 kg/m3.

Q: What about the “vapor or sublimation pressure” value ([1]; 303.15 K) of the same molecule?
A: The value was 41 ± 0.44 kPa.

Q: And the “vapor or sublimation pressure” value ([1]; 305.45 K)?
A: Its value is 45 ± 0.28 kPa.

Q: What about the “vapor or sublimation pressure” value ([1]; 308.2 K) of the same molecule?
A: The value was 50 ± 0.27 kPa.

Q: What about the “vapor or sublimation pressure” value ([1]; 310.8 K) of the same molecule?
A: The value was 55 ± 0.29 kPa.

Q: And the “vapor or sublimation pressure” value ([1]; 313.1 K)?
A: The value was 60 ± 0.31 kPa.

Q: And the viscosity ([1]; 313.15 K)?
A: Its viscosity is 0.278 ± 0.005 mPa·s.

Q: What about the mass density ([1]; 313.15 K) of the same molecule?
A: Its mass density is 718.5 ± 0.3 kg/m3.

Q: And the “vapor or sublimation pressure” value ([1]; 315.3 K)?
A: The value was 65 ± 0.32 kPa.

Q: And the “vapor or sublimation pressure” value ([1]; 317.4 K)?
A: The value was 70 ± 0.33 kPa.

Q: And the “vapor or sublimation pressure” value ([1]; 319.3 K)?
A: The value was 75 ± 0.35 kPa.

Q: What about the “vapor or sublimation pressure” value ([1]; 321.1 K) of the same molecule?
A: The value was 80 ± 0.36 kPa.

Q: What about the “vapor or sublimation pressure” value ([1]; 322.9 K) of the same molecule?
A: Its value is 85 ± 0.38 kPa.

Q: What about the “vapor or sublimation pressure” value ([1]; 324.5 K) of the same molecule?
A: Its value is 90 ± 0.39 kPa.

Q: What about the “vapor or sublimation pressure” value ([1]; 325.4 K) of the same molecule?
A: Its value is 92.5 ± 0.38 kPa.

Q: What about the “vapor or sublimation pressure” value ([1]; 326.2 K) of the same molecule?
A: The value was 95 ± 0.4 kPa.

Q: And the “vapor or sublimation pressure” value ([1]; 326.9 K)?
A: The value was 97.2 ± 0.4 kPa.

Q: Which results are given for `COC(C)(C)C` [2-methoxy-2-methylpropane] + ClC(Cl)Cl?
A: excess molar enthalpy ([2]; x2 = 0): 0 ± 0.000239 kcal/mol; viscosity ([3]; x2 = 0): 0.333 ± 0.005 mPa·s; mass density ([3]; x2 = 0): 739.9 ± 0.4 kg/m3

Q: Which results are given for `ClC(Cl)Cl` [trichloromethane]?
A: viscosity ([1]; 273.15 K): 0.713 mPa·s; mass density ([1]; 273.15 K): 1526 ± 0.3 kg/m3; viscosity ([1]; 283.15 K): 0.651 mPa·s; mass density ([1]; 283.15 K): 1507.1 ± 0.3 kg/m3; viscosity ([1]; 293.15 K): 0.6 mPa·s; mass density ([1]; 293.15 K): 1488.4 ± 0.3 kg/m3; viscosity ([1]; 298.15 K): 0.576 mPa·s; mass density ([1]; 298.15 K): 1478.8 ± 0.3 kg/m3; viscosity ([1]; 303.15 K): 0.552 mPa·s; mass density ([1]; 303.15 K): 1469.2 ± 0.3 kg/m3; vapor or sublimation pressure ([1]; 303.15 K): 32.2 ± 0.36 kPa; viscosity ([1]; 313.15 K): 0.509 mPa·s; mass density ([1]; 313.15 K): 1450 ± 0.3 kg/m3; viscosity ([1]; 318.15 K): 0.491 mPa·s; mass density ([1]; 318.15 K): 1440 ± 0.3 kg/m3

Q: Which excess molar enthalpy ([2]; x1 = 0.038) does the source give for `ClC(Cl)Cl` [trichloromethane] + COC(C)(C)C here?
A: Its excess molar enthalpy is -0.0817 ± 0.00813 kcal/mol.

Q: And the excess molar enthalpy ([2]; x1 = 0.068)?
A: The excess molar enthalpy was -0.159 ± 0.0136 kcal/mol.

Q: What about the excess molar enthalpy ([2]; x1 = 0.097) of the same molecule?
A: Its excess molar enthalpy is -0.22 ± 0.0213 kcal/mol.

Q: What about the excess molar enthalpy ([2]; x1 = 0.101) of the same molecule?
A: Its excess molar enthalpy is -0.244 ± 0.0229 kcal/mol.

Q: What about the excess molar enthalpy ([2]; x1 = 0.118) of the same molecule?
A: Its excess molar enthalpy is -0.263 ± 0.0213 kcal/mol.

Q: And the excess molar enthalpy ([2]; x1 = 0.154)?
A: The excess molar enthalpy was -0.287 ± 0.0232 kcal/mol.

Q: What about the excess molar enthalpy ([2]; x1 = 0.172) of the same molecule?
A: The excess molar enthalpy was -0.311 ± 0.0239 kcal/mol.

Q: And the excess molar enthalpy ([2]; x1 = 0.219)?
A: The excess molar enthalpy was -0.382 ± 0.0311 kcal/mol.

Q: What about the excess molar enthalpy ([2]; x1 = 0.251) of the same molecule?
A: Its excess molar enthalpy is -0.454 ± 0.0359 kcal/mol.

Q: And the excess molar enthalpy ([2]; x1 = 0.39)?
A: The excess molar enthalpy was -0.502 ± 0.0406 kcal/mol.

Q: What about the excess molar enthalpy ([2]; x1 = 0.516) of the same molecule?
A: Its excess molar enthalpy is -0.502 ± 0.0406 kcal/mol.

Q: And the excess molar enthalpy ([2]; x1 = 0.669)?
A: The excess molar enthalpy was -0.43 ± 0.0335 kcal/mol.

Q: What about the excess molar enthalpy ([2]; x1 = 0.78) of the same molecule?
A: The excess molar enthalpy was -0.359 ± 0.0287 kcal/mol.

Q: What about the excess molar enthalpy ([2]; x1 = 0.864) of the same molecule?
A: The excess molar enthalpy was -0.191 ± 0.0158 kcal/mol.

Q: What about the excess molar enthalpy ([2]; x1 = 0.899) of the same molecule?
A: Its excess molar enthalpy is -0.155 ± 0.0127 kcal/mol.

Q: And the excess molar enthalpy ([2]; x1 = 0.931)?
A: The excess molar enthalpy was -0.115 ± 0.0098 kcal/mol.

Q: And the excess molar enthalpy ([2]; x1 = 0.958)?
A: The excess molar enthalpy was -0.0669 ± 0.00621 kcal/mol.

Q: What about the excess molar enthalpy ([2]; x1 = 0.986) of the same molecule?
A: Its excess molar enthalpy is -0.0359 ± 0.0043 kcal/mol.

Q: What about the excess molar enthalpy ([2]; x1 = 1) of the same molecule?
A: The excess molar enthalpy was 0 ± 0.000239 kcal/mol.

Q: And the viscosity ([3]; x1 = 0.0527)?
A: The viscosity was 0.358 ± 0.005 mPa·s.

Q: And the viscosity ([3]; x1 = 0.0834)?
A: Its viscosity is 0.372 ± 0.005 mPa·s.

Q: What about the viscosity ([3]; x1 = 0.1841) of the same molecule?
A: The viscosity was 0.423 ± 0.005 mPa·s.

Q: And the viscosity ([3]; x1 = 0.2714)?
A: Its viscosity is 0.47 ± 0.006 mPa·s.

Q: And the viscosity ([3]; x1 = 0.358)?
A: The viscosity was 0.514 ± 0.006 mPa·s.

Q: What about the viscosity ([3]; x1 = 0.4511) of the same molecule?
A: Its viscosity is 0.56 ± 0.006 mPa·s.

Q: And the viscosity ([3]; x1 = 0.546)?
A: The viscosity was 0.595 ± 0.006 mPa·s.

Q: And the viscosity ([3]; x1 = 0.6303)?
A: Its viscosity is 0.612 ± 0.007 mPa·s.

Q: What about the viscosity ([3]; x1 = 0.724) of the same molecule?
A: Its viscosity is 0.62 ± 0.007 mPa·s.

Q: What about the viscosity ([3]; x1 = 0.8108) of the same molecule?
A: The viscosity was 0.618 ± 0.007 mPa·s.

Q: What about the viscosity ([3]; x1 = 0.8948) of the same molecule?
A: Its viscosity is 0.613 ± 0.006 mPa·s.

Q: And the viscosity ([3]; x1 = 0.9515)?
A: Its viscosity is 0.609 ± 0.006 mPa·s.

Q: And the viscosity ([3]; x1 = 1)?
A: The viscosity was 0.6 ± 0.006 mPa·s.

Q: And the mass density ([3]; x1 = 0.0527)?
A: Its mass density is 768.1 ± 0.4 kg/m3.

Q: And the mass density ([3]; x1 = 0.0834)?
A: The mass density was 785.4 ± 0.4 kg/m3.

Q: What about the mass density ([3]; x1 = 0.1841) of the same molecule?
A: Its mass density is 842.6 ± 0.4 kg/m3.

Q: What about the mass density ([3]; x1 = 0.2714) of the same molecule?
A: The mass density was 895.6 ± 0.3 kg/m3.

Q: What about the mass density ([3]; x1 = 0.358) of the same molecule?
A: The mass density was 951.5 ± 0.3 kg/m3.

Q: And the mass density ([3]; x1 = 0.4511)?
A: The mass density was 1015 ± 0.3 kg/m3.

Q: What about the mass density ([3]; x1 = 0.546) of the same molecule?
A: Its mass density is 1083.8 ± 0.3 kg/m3.

Q: And the mass density ([3]; x1 = 0.6303)?
A: The mass density was 1148.9 ± 0.4 kg/m3.

Q: And the mass density ([3]; x1 = 0.724)?
A: Its mass density is 1225.9 ± 0.4 kg/m3.

Q: What about the mass density ([3]; x1 = 0.8108) of the same molecule?
A: Its mass density is 1302.9 ± 0.5 kg/m3.

Q: And the mass density ([3]; x1 = 0.8948)?
A: Its mass density is 1381.1 ± 0.6 kg/m3.

Q: What about the mass density ([3]; x1 = 0.9515) of the same molecule?
A: Its mass density is 1437.9 ± 0.7 kg/m3.

Q: And the mass density ([3]; x1 = 1)?
A: The mass density was 1488.4 ± 0.7 kg/m3.
